The source of these data is patent US10272261B2, “Methods and compositions for treating ocular glaucoma” (Massachusetts Eye and Ear Infirmary, priority 2004, dated 2019).

“Also recorded” adds a separate entry of the source.

What all share (assay type): in vivo, mouse
Assay [1] relates to C57BL/6 normal mice. The assay is described as follows: IOP measurement (applanation tonometer) after transscleral ciliary body PDT in C57BL/6 normal mice. The procedure: All experiments were performed in accordance with the Association for Research in Vision and Ophthalmology Statement for the Use of Animals in Ophthalmic and Vision Research. C57BL/6 female mice aged 3 months (n=20) were used as the normal model. DBA/2J female mice aged 8 months (n=20) were used as the glaucoma mouse model. One eye of each animal was treated and the other eye served as a control (for both the normal and glaucoma models). Animals were housed in covered cages, were fed with a standard rodent diet ad libitum and were kept under constant 12 hour light-12 hour dark cycles. For general anesthesia, a mixture of ketamine (100 mg/kg) and xylazine (9 mg/kg) was administered intraperitoneally.
Verteporfin photosensitizer (Novartis Ophthalmics, Inc., Duluth, Ga.) was used in these experiments. The mice were systemically anesthetized prior to PDT, and the photosensitizer dye was administered to the animals by tail vain injections using a 30 G needle 5 minutes before laser irradiation. A dose of 2.0 or 4.0 mg/kg was used in C57BL/6 normal mice and of 1.0 mg/kg was used in DBA/2J mice. The laser irradiation to the ciliary body was applied transsclerally using a 600 μm optical fiber at a wavelength of light of 689 nm from a Diode Laser, with an irradiance of 1800 mW/cm^2 and a fluence of 100 J/cm^2 (Lumenis, Santa Clara, Calif.). […] In the C57BL/6 and DBA/2J mice, 16 and 8 spots, respectively, were irradiated to overlap with one another. In the eyes prepared for lectin labeling and terminal deoxynucleotide transferase-mediated nick end labeling (TUNEL) staining (a measure of apoptosis), PDT was performed in C57BL/6 mice to cover 180 degrees of the ciliary body at a 4.0 mg/kg verteporfin dose to compare the degree of staining between irradiated area and non-irradiated area. Retreatment was performed in C57BL/6 normal mice which had been treated with 2.0 mg/kg of verteporfin after the IOP measurement at post-PDT day 7 using the same light parameters.
The IOP was measured using a previously reported applanation tonometer (Ahamed et al. (2003) IOVS 44:ARVO E-Abstract 3336) (n=12 in DBA/2J mice, n=5 in C57BL/6 mice at each dose). The principle of applanation tonometry employs fiber-optic gauges which are designed around a Fabry-Perot interferometer (FPI) (FTI-10; FISO Technologies, Inc., Quebec, Canada). FPI consists of two mirrors facing each other, the space separating the mirrors being called the cavity length. Light reflected in the FPI is wavelength-modulated in exact accordance with the cavity length. FPI gauges convert pressure into cavity length variations which correlate with IOP.
IOP was measured under general anesthesia. Standardization of the plane of anesthesia was obtained as described previously (John et al. (1997) INVEST. OPHTHALMOL. VIS. SCI. 38:249-53). Anesthesia was administered to one mouse at a time. […] Then anesthesia was injected in the next mouse.
As soon as the mice were anesthetized sufficiently, they were placed on a surgical platform. When the pressure sensor applanated a central area of mouse cornea under a dissecting microscope, the IOP (psi) was measured by the device 10 times automatically. The resulting pressures were converted into mmHg units by multiplying the obtained mean value by […]. The LOP was measured every 2 days in the first week, then twice a week until 4 weeks after PDT, and then once a week until 8 weeks after PDT.

Assay [2] deals with retinal ganglion cells. Description: Retinal ganglion cell (RGC) count in DBA/2J mice, fluorochrome retrograde labeling. From the text: Four weeks after the end of IOP follow up, RGC was counted in DBA/2J mice (11 months old) as described previously (Levkovitch-Verbin et al. (2000) INVEST. OPHTHALMOL. VIS. SCI. 41:4169-74, Danias et al. (2003) INVEST. OPHTHALMOL. VIS. SCI. 44:5151-62) with slight modification (n=4). After the mice were anesthetized, the skin over the cranium was incised, and the scalp was exposed. Holes approximately 2 mm in diameter were drilled in the skull 4 mm posterior to the bregma, 1 mm lateral to the midline on both sides of the midline raphe. The neurotracer dye fluorochrome (Fluoro-gold, Englewood, Colo.) (4% solution in saline) was directly applied (1 μL, at a rate of 0.5 μL/min) at a depth of 2 mm from the brain surface using a Hamilton syringe (Hamilton, Reno, Nev.). Skull openings then were sealed with antibiotic ointment. The overlying skin was sutured and antibiotic ointment applied externally.
Seven days after the application of fluorochrome, the eyes were enucleated. […] Cell counting was performed as previously described (Nakazawa et al. (2002) INVEST. OPHTHALMOL. VIS. SCI. 43:3319-26) under a fluorescence microscope (Leica Microsystems, Wetzlar, Germany) using a UV filter set. RGC densities were determined by counting the tracer-labeled RGCs in 12 distinct areas of 9.0×10^−2 mm^2 each (three areas per retinal quadrant at 1/6, 3/6 and 5/6 of the retinal radius). […]

In assay [3] the test system is ciliary body. The assay is described as follows: Histology (light and electron microscopy) of ciliary body after PDT in C57BL/6 normal mice. The procedure:
(§1) Eyes were enucleated at 6 hours (only DBA/2J), at 1 and 7 days after treatment, and at the end of IOP follow up (8 weeks after treatment)(n=2 in each group at each time point) and processed for light and transmission electron microscopic examination. The eyes were bisected behind the limbus, placed in modified Karnovsky's fixative at 4° C. overnight, and then transferred to 0.1 M cacodylate buffer at pH 7.4. Ciliary body specimens were observed by stereomicroscopy at 1 day after PDT for normal mice in the 4.0 mg/kg dose-treated group. Tissues were postfixed in aqueous 2% osmium tetroxide, stained en bloc with Uranyl Acetate, dehydrated in graded ethanols, and embedded in Epon. One-micrometer-thick sections were stained with 0.5% toluidine blue in borate buffer for light microscopy and examined using a photomicroscope (Leica Microsystems, Wetzlar, Germany). Thin sections were stained with aqueous uranyl acetate, and Sato's lead stain, and examined with a transmission electron microscope (CM 10; Phillips, Eindhoven, The Netherlands).

In assay [4] the test system is ciliary body. The assay is described as follows: Histology (light and electron microscopy) of ciliary body after PDT in DBA/2J mice. The conditions noted are these: 1.0 mg/kg. How it is done: as §1

As to verteporfin, the “reduction of mean IOP of treated eyes compared to the control eyes” value is on record as 41.3% in assay [1] (2 mg/kg i.v., 360 degrees, 3 days after treatment, p<0.01); 35.1% in assay [1] (2 mg/kg i.v., 689 nm, 100 J/cm^2, 360 degrees, 1 day after treatment, p<0.05); 42.1% in assay [1] (4 mg/kg, 1 day after treatment); 47.3% in assay [1] (4 mg/kg, 5 days after treatment). Also, the “IOP reduction, preliminary experiments” value in assay [1] (2.0 mg/kg, 180° of the ciliary body irradiated) was “significant IOP reduction was not obtained”. Further, the “time by which mean IOP returned to the level of the fellow control eyes” value in assay [1] (2.0 mg/kg, after first treatment) was not above 7 days; in assay [1] (4 mg/kg, after treatment), not above 17 days. For the same substance, the “mean IOP of treated eyes” value in assay [1] (2 mg/kg, retreatment at day 7, 10 days after first PDT) was 8.7±2.6 mmHg; in assay [1] (2 mg/kg, retreatment at day 7, 14 days after first PDT), 9.5±2.1 mmHg; in assay [1] (4 mg/kg i.v., 360 degrees, 1 day after treatment, p<0.05), 9.2±2.4 mmHg. For the same substance, the “time by which mean IOP returned to the level of the control eyes” value in assay [1] (2 mg/kg, with retreatment at day 7, days after PDT) is not above 17 days. Further, the “mean IOP in treated eyes versus fellow control eyes” value in assay [1] (2 mg/kg, with retreatment, 28 and 42 days after PDT) was “statistically lower than the level of fellow control eyes”. The “duration of significant reduction of mean IOP” value in assay [1] (4 mg/kg) was 14 days; in assay [1] (treated normal mice eyes (2.0 and 4.0 mg/kg)), 7 to 17 days. Also, in assay [1] (4 mg/kg, 5 days after treatment, p<0.01), the “mean IOP of treated eyes (minimum)” value came out at 7.2±1.9 mmHg. Further, in assay [2] (1.0 mg/kg PDT at 8 months, counted at 11 months of age), the “number of retinal ganglion cells in the treated eyes” value is on record as 3905±627 /mm^2. For the same substance, the “retinal ganglion cell survival, treated versus control eyes” value in assay [2] (1.0 mg/kg PDT, 3 month period, p<0.05) is “significantly higher than control eyes; also recorded: loss of retinal ganglion cells over the 3 month period was significantly reduced”. Further, the “ciliary body histological findings” value in assay [3] (2.0 mg/kg and 4.0 mg/kg, 7 days after PDT) is “ciliary body vessels had recanalized”; in assay [3] (2.0 mg/kg, 1 day after PDT), “Most ciliary body blood vessels in treated eyes appeared thrombosed and all capillaries were damaged”; in assay [3] (4.0 mg/kg, 1 day after PDT), “vascular injury, thrombosis with vacuolization of endothelial cells, extravasculum of leukocyte and erythrocytes and severe edema”; in assay [4] (8 weeks after PDT), “ciliary body blood vessels were recanalized, and edema had disappeared”; in assay [4] (6 hours after PDT), “most ciliary body blood vessels in the treated eyes were thrombosed”; in assay [4] (1 day after PDT), “most ciliary body blood vessels were still thrombosed, and the ciliary epithelium and stroma were severely damaged and edematous”. In addition, the “ciliary body histological findings” value in assay [4] (7 days after PDT) is listed as “Some of ciliary body blood vessels were still thrombosed”.
